# Values of other authors, collected in patent publication EP4748406A1, “MEDICAL ADHESIVE AGENT AND MEDICAL ADHESIVE SHEET” (Nitto Denko Corporation, priority 2023, dated 2025).
smiles,measurement,value
"C=C(C)C(=O)O [MAA, methacrylic acid]",water solubility at 20°C,9.7 g/100 mL
